Assay results as given in ChEMBL document CHEMBL1142532, “Modular synthesis of non-peptidic bivalent NPY Y1 receptor antagonists” (Bioorg Med Chem, 2008).
pKi: −log10 of the molar value.

Columns and labels:
[1] = target: T1, Neuropeptide Y receptor type 1 (Homo sapiens, UniProt P25929); test: Displacement of NG-([2,3-3H]propionyl)-BIBP-3226 from NPY Y1 receptor in human SK-N-MC cells; format: cell-based
T1 sequence (P25929 whole entry): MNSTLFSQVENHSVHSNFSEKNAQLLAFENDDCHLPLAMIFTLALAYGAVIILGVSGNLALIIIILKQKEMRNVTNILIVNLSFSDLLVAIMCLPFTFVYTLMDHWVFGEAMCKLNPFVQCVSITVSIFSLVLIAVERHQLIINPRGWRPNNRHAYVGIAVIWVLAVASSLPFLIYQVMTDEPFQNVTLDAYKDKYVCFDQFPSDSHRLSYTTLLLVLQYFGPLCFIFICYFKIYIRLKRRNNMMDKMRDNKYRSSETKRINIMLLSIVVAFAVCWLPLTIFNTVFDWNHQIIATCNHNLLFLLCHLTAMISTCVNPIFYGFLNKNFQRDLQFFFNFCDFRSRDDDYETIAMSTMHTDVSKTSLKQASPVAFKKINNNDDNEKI

[2] = target: T2, Neuropeptide Y receptor type 1 (Homo sapiens) (UniProt P25929); test: Antagonist activity at NPY Y1 receptor in HEL cells assessed as inhibition of NPY-induced increase in intracellular calcium mobilization by Fura-2 assay; format: functional, cell-based
T2 sequence (whole entry): T1 sequence (P25929 whole entry)

Row | pKi [1] | Kb [2] | Structure (SMILES)
1 | 8.21 | 7 nM | N/C(=N/C(=O)COCCOCCOCC(=O)/N=C(\N)NCCC[C@@H](NC(=O)C(c1ccccc1)c1ccccc1)C(=O)NCc1ccc(O)cc1)NCCC[C@@H](NC(=O)C(c1ccccc1)c1ccccc1)C(=O)NCc1ccc(O)cc1
2 | 7.24 | 1.8 nM | N/C(=N/C(=O)CCCn1cc(COCCOCCOCCOCCOCc2cn(CCCC(=O)/N=C(\N)NCCC[C@@H](NC(=O)C(c3ccccc3)c3ccccc3)C(=O)NCc3ccc(O)cc3)nn2)nn1)NCCC[C@@H](NC(=O)C(c1ccccc1)c1ccccc1)C(=O)NCc1ccc(O)cc1
3 | < 4.30 |  | N/C(=N/C(=O)c1ccc(Cn2cc(CN(Cc3cn(Cc4ccc(C(=O)/N=C(/N)NCCC[C@@H](NC(=O)C(c5ccccc5)c5ccccc5)C(=O)NCc5ccc(O)cc5)cc4)nn3)Cc3cn(Cc4ccc(C(=O)/N=C(/N)NCCC[C@@H](NC(=O)C(c5ccccc5)c5ccccc5)C(=O)NCc5ccc(O)cc5)cc4)nn3)nn2)cc1)NCCC[C@@H](NC(=O)C(c1ccccc1)c1ccccc1)C(=O)NCc1ccc(O)cc1
4 | 7.31 | 0.9 nM | N/C(=N/C(=O)CCCn1cc(-c2ccccc2)nn1)NCCC[C@@H](NC(=O)C(c1ccccc1)c1ccccc1)C(=O)NCc1ccc(O)cc1
5 | 7.37 | 0.6 nM | N/C(=N/C(=O)CCCn1cc(-c2ccc(-c3cn(CCCC(=O)/N=C(\N)NCCC[C@@H](NC(=O)C(c4ccccc4)c4ccccc4)C(=O)NCc4ccc(O)cc4)nn3)cc2)nn1)NCCC[C@@H](NC(=O)C(c1ccccc1)c1ccccc1)C(=O)NCc1ccc(O)cc1
